Results on 5 molecules are retold here after patent US8937038B2, “Composition containing peptide ligand that bonds with CXCR2 for treating infective and inflammatory diseases” (priority 2010, dated 2015).

Where no end group is shown, it is not given here. The star is where a group is joined. Palmitoyl = CCCCCCCCCCCCCCCC(=O)*

Experiment [1] has as its system mouse neutrophils. Briefly: H2O2 production in mouse neutrophils. It counts as cell-based. To be noted: neutrophils pretreated with SB225002 30 minutes, then Ac-PGP 20 μM; FIG. 13. The method, then: Mouse neutrophils were separated from peripheral blood using a Histopaque-1077 solution (Sigma) (Bae Y S et al. 2001 Blood. 97: 2854-2862). The neutrophils separated from normal mice were stimulated with various concentrations of Ac-PGP for 10 minutes in the presence of cytochalasin B (5 μM). To identify the role of mCXCR2, the neutrophils were pre-incubated in various concentrations of SB225002 or a vehicle (DMSO) for 30 minutes in a stationary environment, and Ac-PGP (20 μM) was added, and incubated for 10 minutes. H2O2 in a supernatant was measured using a H2O2 measurement kit (Molecular probe).
A death rate by CLP is correlated with the number of bacterial colonies in a peritoneal fluid. Therefore, an effect of the Ac-PGP on removal of bacteria in a peritoneal fluid was examined. […] In vitro disinfection activity of the Ac-PGP was examined using neutrophils derived from a mouse. The mouse neutrophils were kept for an hour to phagocytize E. coli, and then stimulated with various concentrations of Ac-PGP (0.1 to 100 nM) for 20 minutes. […] A reactive oxygen species such as hydrogen peroxide was known as an important molecule participating in the disinfection activity. Therefore, an effect of Ac-PGP on production of hydrogen peroxide in the mouse neutrophils was examined. […]

Experiment [2] has as its system human neutrophils. Briefly: Cytokine production by LPS-stimulated human neutrophils. It is filed as cell-based. The note with it: human neutrophils stimulated with LPS. An excerpt: (§1) All kinds of protocols used in human beings were approved by the Institutional Review Board (IRB) at Dong-A University Hospital, and prior consents were obtained from all blood donors. Peripheral blood was collected from healthy donors, and human peripheral monocytes were separated using a Histopaque-1077 gradient. Neutrophils were separated through methods such as dextran precipitation of red blood cell, hypotonic lysis, and usage of lymphocyte isolation medium gradient, as known in the related art (Bae, Y. S. et al. Blood 97, 2854-2862(2001)). The separated human leukocytes were used immediately.
(§2) Next, an effect of the Ac-PGP on production of cytokines by human neutrophils and PBMCs was examined. […] A human CXCR2 chemokine agonist CXCL8 had few effects on production of TNF-α or IFN-γ stimulated with LPS (FIG. 28 to FIG. 31). Therefore, the Ac-PGP could improve both antiseptic activities in leukocytes derived from human beings and mice.

The subject of experiment [3] is PBMCs. In words: Cytokine production by LPS-stimulated human PBMCs. It counts as cell-based. The note with it: human PBMCs stimulated with LPS.
Description: as §1, §2

For experiment [4], the system named is cecal ligation and puncture (CLP)-septic mice. The note with it: Kuliopulos et al.; cited from earlier work.
The test system of experiment [5] is mouse splenocytes. Briefly: Cytokine release from LPS-stimulated mouse splenocytes (ELISA). It is filed as cell-based. The note with it: LPS 100 ng/ml. The protocol: Mouse splenocytes were positioned on an RPMI 1640 medium including 5% FBS in a 96-well plate, and maintained at 37° C. in a 5% CO2 incubator. Thereafter, the splenocytes were stationarily incubated with LPS (100 ng/ml) for 24 hours in the presence or absence of Ac-PGP. After 30 minutes, LPS was added to the cells and collected a cell-free supernatant, and then the supernatant was centrifuged, and TNF-α, IL-6 and IFN-γ were measured using ELISA (BD Biosciences Pharmingen). In regards to the effect of IFN-γ on production of pro-inflammatory cytokines induced by LPS, 5×10^5 cells/ml of the mouse splenocytes were stimulated with 100 ng/ml of LPS in the presence or absence IFN-γ (R&D) (at various concentrations of 1, 10, 100 and 1,000 IU/ml). Amounts of TNF-α and IL-6 were measured 20 hours after stationary incubation using ELISA (BD Biosciences Pharmingen).
An effect of the Ac-PGP on a pro-inflammatory cytokine in a peritoneal fluid by CLP was determined from 4 to 72 hours after the CLP. The CLP induced a remarkable increase in levels of pro-inflammatory cytokines (TNF-α, IL-1β and IL-6) within 24 hours (FIGS. 14 to 16). Injection of the Ac-PGP in a sepsis model by the CLP induced a remarkable change in levels of the cytokines. […] To evaluate an effect of the Ac-PGP on production of the pro-inflammatory cytokines by the LPS, in vitro production of TNF-α and IL-6 by the mouse splenocytes was evaluated. Direct release of the TNF-α and IL-6 from the mouse splenocytes by the LPS was suppressed by in vitro treatment with the Ac-PGP (FIGS. 17 and 18).
Since it was confirmed that the administration of the Ac-PGP improved in vivo production of IFN-γ, a direct effect of the Ac-PGP on production of IFN-γ by splenocytes was examined. […] Also, an effect of IFN-γ on production of the pro-inflammatory cytokines was also examined.
In general terms: An ELISA detects its analyte on a solid surface through an enzyme-linked reagent.

`O=C(Nc1ccc([N+](=O)[O-])cc1O)Nc1ccccc1Br` [SB225002, reference compound]: the “production of hydrogen peroxide by the Ac-PGP” value in experiment [1] is “completely suppressed”.
On to CXCL8: human CXCR2 chemokine agonist, for which the “production of TNF-α” value in experiment [2] (FIG. 28) and in experiment [3] (FIG. 29) was “few effects” each time. The “production of IFN-γ” value in experiment [2] (FIG. 30) and in experiment [3] (FIG. 31) was “few effects” each time.
As to “pal-RTLFKAHMGQKHR (Palmitoyl-RTLFKAHMGQKHR) [x1/2pal-3]”, the survival rate entry in experiment [4] is on record as “remarkable increase in survival rate”.

B1: IFN-γ: type 1 cytokine (R&D) added to mouse splenocytes at 1 to 1,000 IU/ml (protein, UniProt P01580 23-155, looked up)
Interferon gamma: HGTVIESLESLNNYFNSSGIDVEEKSLFLDIWRNWQKDGDMKILQSQIISFYLRLFEVLKDNQAISNNISVIESHLITTFFSNSKAKKDAFMSIAKFEVNNPQVQRQAFNELIRVVHQLLPESSLRKRKRSRC
B1: in experiment [5] (5×10^5 cells/ml, IFN-γ 1, 10, 100 and 1,000 IU/ml, 20 hours, FIG. 25), the “production of TNF-α by LPS” value is reported as “relieved production”. For the same molecule, the “production of IL-6 by LPS” value in experiment [5] (5×10^5 cells/ml, IFN-γ 1, 10, 100 and 1,000 IU/ml, 20 hours, FIG. 26) is recorded as “relieved production”.

B2: KC: counterpart of mouse IL-8; mouse chemokine activating CXCR2 (protein, UniProt P12850 25-96, looked up)
Growth-regulated alpha protein: APIANELRCQCLQTMAGIHLKNIQSLKVLPSGPHCTQTEVIATLKNGREACLDPEAPLVQKIVQKMLKGVPK
As to B2, in experiment [5] (24 hours, FIG. 17), the “release of TNF-α by LPS” value is listed as “could not suppress”. For the same molecule, the “release of IL-6 by LPS” value in experiment [5] (24 hours, FIG. 18) is on record as “could not suppress”.
